Results as given in patent US20240159744A1, “COLON CANCER DIAGNOSIS OR DETECTION COMPOSITION FOR PREDICTING RESPONSE TO DRUG, AND COMPOSITION FOR PREVENTING OR TREATING COLON CANCER” (priority 2020, published 2024).

How the values were obtained:
[1] = system: HCT-15, HT29, Lovo and HCT-8 cells; experiment: In-vitro toxicity test (CCK-8), statements over all four cell lines; assay type: cell-based, human; details: 48 hours
Experimental: First, HCT-15 cells were plated on a 96-well plate at a density of 5×10^3 cell/well. […] 48 hours later, the medium was removed and the cells were treated with a cell counting kit (CCK-8, Dojindo, Japan) at 37° C. for 1 hour. Absorbance was measured at 450 nm using a VERSAmax™ microplate reader (Molecular Devices Corp., CA, USA). The cell viability of each group (n=5) was represented as a percentage of normal untreated cells (control group). […] After removing the medium, cell viability was evaluated by CCK-8 assay.

[2] = system: HCT-8-bearing mice; experiment: Antitumor effect of EGF-prodrug in vivo; details: 1 mg/kg of DOX, 6 times every 3 days, 21 days
Experimental: 2×10^6 HCT-15 cells or HCT-8 cells were subcutaneously inoculated to Balb/c-nude mice. […] The injection was carried out into the tail vein every 3 days for a total of 6 times. Antitumor effect was evaluated by sacrificing the mice to which the HCT-15 or HCT-8 cells were administered and measuring the volume of tumor tissue. The volume of the tumor tissue was calculated every day or every other day by 0.53×length×width^2. Tumor growth was monitored for 21 days. After sacrificing the mice, the HCT-15 or HCT-8 tumor tissues were collected. The dissected tumors were imaged and fixed by treating with 4% paraformaldehyde. […] The sections were used for histological or pathological investigation. They were stained with H&E for visualization and subjected to TUNEL assay using a […] TUNEL system (Promega, WI, USA) for investigation of the apoptosis of cancer cells. The tumor tissues stained with H&E and TUNEL were observed using a BX51 optical microscope (Olympus, Tokyo, Japan) and a TCS SP8 confocal laser microscope.

[3] = system: HCT-15 tumor-bearing mice; experiment: Tumor-targeting ability and biodistribution of DOX, C-prodrug, EGF-prodrug; assay type: in vivo; details: intravenous, 24 hours
Description: In addition, the tumor-targeting ability of DOX, the C-prodrug and the EGF-prodrug was compared.

[4] = system: HCT-15 tumor-bearing mice; experiment: In-vivo and ex-vivo fluorescence imaging of EGF-Cy5.5, C-probe, EGF-probe; details: cryosections, confocal
Experimental: The biodistribution of the EGF-probe intravenously administered to mice having HCT-15, HT29, Lovo or HCT-8 tumors was evaluated. First of all, 6-week-old Balb/c-nude mice (Nara-Biotec, Gyeonggi-do, Korea) were prepared and each cell was subcutaneously inoculated into the nude mice at the right flank at a concentration of 2×10^6 cells/mouse to generate tumors. […] At 24 hours after the administration of the EGF-probe, the mouse was imaged using an IVIS fluorescence imaging system. […] IVIS fluorescence imaging was conducted at 24 hours after the administration. Major organs and tumors were obtained and imaged with an IVIS imaging system. The fluorescence intensity of the organs and tumors was analyzed using the Living Image 2.50 software. […] The tumor tissue sections were counter-stained with DAPI and visualized with a confocal microscope.

Row | Compound | cytotoxicity versus concentration [1] | tumor size [2] | ex-vivo distribution in organs and tumor [3] | fluorescence of tumor tissue sections [4]
1 | COc1cccc2c1C(=O)c1c(O)c3c(c(O)c1C2=O)C[C@@](O)(C(=O)CO)C[C@@H]3O[C@H]1C[C@H](N)[C@H](O)[C@H](C)O1.Cl [DOX, doxorubicin hydrochloride] | increased with the concentration | not controlled significantly | significant amounts were accumulated also in the lung, liver and kidney | 
2 | (Ac)CGFLG-DOX [C-prodrug] |  | not controlled significantly |  | 
3 | Cy5.5-GFLGGK(BHQ-3)GG-COOH [C-probe] |  |  |  | much weaker fluorescence signals
